Among the data in PubChem BioAssay (NCI) are GI50 and TGI values, retold here.

“And” between values parts separate entries of the source, which are not always exact repeats. Equal values may be shown once.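 Cells were grown in 96-well plates and exposed to each compound for 48 hours at five concentrations; endpoints were interpolated linearly between bracketing concentrations, or set to the highest concentration if not reached. Here, GI50 denotes the concentration required for 50% inhibition of growth. TGI denotes the concentration required for complete inhibition of growth.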 Some results are limits rather than exact numbers.

Some test systems named below: KM12 colon; 786-0 renal; NCI-H522 lung; SK-MEL-2 melanoma; NCI-H460 lung; M14 melanoma; HCT-116 colon; SF-539 CNS; NCI-H23 lung; LOX IMVI melanoma.
What all share (experiment): inhibition of tumour cell growth, NCI panel, 48 h

On to `O=C(CCCCN1CCN(CCCCC(=O)Nc2ccccc2C#C/C=C\C#Cc2ccccc2C(F)(F)F)CC1)Nc1ccccc1C#C/C=C\C#Cc1ccccc1C(F)(F)F`, for which the GI50 in the assay with KM12 colon was 13.2 µM; with 786-0 renal, 9.8 µM; with NCI-H522 lung, 9.19 µM; in the assay on SK-MEL-2 melanoma, 12.4 µM; in the assay on NCI-H460 lung it was 11.2 µM; in the assay with M14 melanoma it was 11.7 µM. Further, the GI50 in the assay on HCT-116 colon is 9.18 µM; in the assay with SF-539 CNS it was 10.2 µM; in the assay with NCI-H23 lung it was 13.8 µM; in the assay on LOX IMVI melanoma it was 10.1 µM. Further, the TGI in the assay on KM12 colon worked out at 33 µM; in the assay with 786-0 renal it was 18.3 µM; with NCI-H522 lung, 20.4 µM; in the assay with SK-MEL-2 melanoma, 29.9 µM; in the assay on NCI-H460 lung, 25.5 µM; in the assay on M14 melanoma, 25.9 µM. In addition, the TGI in the assay with HCT-116 colon worked out at 17.8 µM; in the assay on SF-539 CNS, 19.3 µM; in the assay on NCI-H23 lung, 38.9 µM; in the assay with LOX IMVI melanoma, 20.2 µM.
For `COc1ccccc1/C=C(\NC(=O)c1ccccc1)c1nc2ccc(Cl)cc2[nH]1`, the TGI with KM12 colon was greater than 100 µM; in the assay with 786-0 renal, 87.1 µM; in the assay with NCI-H522 lung, 49.5 µM; in the assay with SK-MEL-2 melanoma, 65.7 µM; in the assay with NCI-H460 lung it was greater than 100 µM; in the assay with M14 melanoma, greater than 100 µM. Besides, the TGI in the assay on HCT-116 colon was greater than 100 µM; in the assay with SF-539 CNS, greater than 100 µM; in the assay with NCI-H23 lung, 69.3 µM; in the assay on LOX IMVI melanoma, greater than 100 µM.
Take `O=C1Nc2ccc(-c3cccnc3)cc2/C1=C/c1cc(Br)c(O)c(Br)c1`: the GI50 with KM12 colon is 6.59 µM; with 786-0 renal, 7.18 µM; with NCI-H522 lung it was 4.38 µM; in the assay with SK-MEL-2 melanoma, 3.11 µM; with NCI-H460 lung it was 6.97 µM; in the assay on M14 melanoma it was 4.45 µM. The GI50 in the assay on HCT-116 colon was 6.54 µM; in the assay on SF-539 CNS, 5.15 µM; in the assay on NCI-H23 lung, 6.86 µM; in the assay with LOX IMVI melanoma, 4.99 µM. For the same compound, the TGI in the assay with KM12 colon was 24.8 µM; in the assay with 786-0 renal it was greater than 25 µM; with NCI-H522 lung it was 13.7 µM; with SK-MEL-2 melanoma, 6.85 µM; in the assay on NCI-H460 lung it was greater than 25 µM; with M14 melanoma, greater than 21.9 µM. Besides, the TGI with HCT-116 colon is greater than 25 µM; in the assay with SF-539 CNS, greater than 22.4 µM; in the assay on NCI-H23 lung, greater than 21.9 µM; in the assay with LOX IMVI melanoma, greater than 25 µM.
Turning to `CC(C)N(C(=O)C12C3C4C1C1C4(C#N)C3C12C(=O)O)C(C)C` (centres undefined), the TGI in the assay with KM12 colon, in the assay on 786-0 renal, in the assay on NCI-H522 lung, with SK-MEL-2 melanoma, in the assay on NCI-H460 lung and in the assay on M14 melanoma was greater than 100 µM throughout. The TGI with HCT-116 colon, in the assay with SF-539 CNS, with NCI-H23 lung and in the assay with LOX IMVI melanoma was greater than 100 µM each time.
With `Cc1ccc(C(=O)Nc2ccc(Oc3cc4cnn(C)c4cc3-c3cn[nH]c3)c(F)c2)c(=O)n1-c1ccc(F)cc1`, the GI50 was 0.0304 µM with KM12 colon; greater than 100 µM in the assay with 786-0 renal; 32 µM with NCI-H522 lung; 18.1 µM with SK-MEL-2 melanoma; 8.12 µM in the assay on NCI-H460 lung; 2.96 µM in the assay with M14 melanoma. Besides, the GI50 in the assay with HCT-116 colon is 6.31 µM; with SF-539 CNS it was 1.37 µM; with NCI-H23 lung, 8.97 µM; in the assay with LOX IMVI melanoma it was 2.46 µM. In addition, the TGI in the assay with KM12 colon, in the assay on 786-0 renal, with NCI-H522 lung, in the assay on SK-MEL-2 melanoma, with NCI-H460 lung and in the assay on M14 melanoma was greater than 100 µM in each case. Also, the TGI in the assay on HCT-116 colon, in the assay on SF-539 CNS, with NCI-H23 lung and in the assay on LOX IMVI melanoma was greater than 100 µM in each case.
For `CN1CCCc2nc3ccccc3n2C1`, the TGI with KM12 colon, in the assay on 786-0 renal, with NCI-H522 lung, with SK-MEL-2 melanoma, with NCI-H460 lung and with M14 melanoma was greater than 100 µM each time. Further, the TGI with HCT-116 colon, in the assay on SF-539 CNS, in the assay on NCI-H23 lung and in the assay on LOX IMVI melanoma was greater than 100 µM each time.
`CC[n+]1c(-c2ccccc2)c2cc(N)ccc2c2ccc(N)cc21`: the GI50 with KM12 colon is 1.02 µM; in the assay with 786-0 renal it was 1.37 µM and 1.16 µM and 3.57 µM; in the assay with SK-MEL-2 melanoma it was 1.11 µM; in the assay on NCI-H460 lung it was 1.21 µM; with M14 melanoma, 3.84 µM; in the assay with HCT-116 colon, 1.71 µM. The GI50 was 0.763 µM in the assay with SF-539 CNS; 0.515 µM in the assay with NCI-H23 lung; 2.31 µM and 3.12 µM and 7.53 µM with LOX IMVI melanoma. In addition, the TGI in the assay with KM12 colon was 4.68 µM and 15 µM and 21.9 µM; with 786-0 renal, 13.6 µM and 12.7 µM and 26.1 µM; with NCI-H522 lung, 2.54 µM and 8.58 µM and 23.2 µM; in the assay on SK-MEL-2 melanoma it was 3.8 µM and 6.55 µM; in the assay on NCI-H460 lung, 12.3 µM and 22.5 µM and 22.1 µM; in the assay on M14 melanoma, 16.6 µM and 44.5 µM. Further, the TGI in the assay on HCT-116 colon was 12.7 µM and 25.3 µM and 26.6 µM; in the assay with SF-539 CNS, 4.4 µM and 6.43 µM and 6.19 µM; in the assay on NCI-H23 lung, 3.65 µM and 5.2 µM and 3.61 µM; in the assay on LOX IMVI melanoma, 13.7 µM and 21.2 µM and 34.7 µM.
Take `COC(=O)c1ccc(NC(N)=NCCC(C)(C)c2ccc(C(F)(F)F)cc2)nc1`: the GI50 was 2.65 µM in the assay on KM12 colon; 7.64 µM in the assay with 786-0 renal; 3.1 µM in the assay on NCI-H522 lung; 3.22 µM in the assay on SK-MEL-2 melanoma; 2.06 µM with NCI-H460 lung; 1.7 µM with M14 melanoma. Moreover, the GI50 is 1.6 µM in the assay on HCT-116 colon, 1.74 µM with SF-539 CNS, 2.15 µM with NCI-H23 lung and 1.57 µM in the assay with LOX IMVI melanoma. Besides, the TGI in the assay on KM12 colon stood at 9.12 µM; in the assay with 786-0 renal it was 28.2 µM; in the assay with NCI-H522 lung it was 13 µM; in the assay on SK-MEL-2 melanoma it was 10.5 µM; in the assay on NCI-H460 lung, 4.56 µM; in the assay on M14 melanoma, 3.8 µM. In addition, the TGI in the assay on HCT-116 colon is 3.3 µM; in the assay with SF-539 CNS, 3.53 µM; with NCI-H23 lung it was 11.5 µM; in the assay with LOX IMVI melanoma, 2.98 µM.
Regarding `Oc1cn(-c2ccc(Cl)cc2)nc1-c1n[nH]c(=S)n1-c1ccc(F)cc1`, the GI50 in the assay on KM12 colon is 13 µM; in the assay on 786-0 renal, 28.1 µM; with NCI-H522 lung, 18 µM; with SK-MEL-2 melanoma, 34 µM; in the assay on NCI-H460 lung, 11.9 µM; in the assay with M14 melanoma it was 15.1 µM. The GI50 is 11.6 µM in the assay with HCT-116 colon, 15.1 µM with SF-539 CNS, 15.7 µM with NCI-H23 lung and 16.8 µM with LOX IMVI melanoma. Further, the TGI with KM12 colon is greater than 100 µM; in the assay with 786-0 renal, greater than 100 µM; in the assay on NCI-H522 lung, 64.8 µM; with SK-MEL-2 melanoma it was greater than 100 µM; in the assay on NCI-H460 lung, 40.8 µM; with M14 melanoma, 45 µM. Besides, the TGI in the assay with HCT-116 colon was 25.5 µM; in the assay with SF-539 CNS, 34.9 µM; in the assay with NCI-H23 lung, 33 µM; in the assay with LOX IMVI melanoma it was 43 µM.
As to `C[n+]1cn(CC(=O)c2ccccc2)c(C(N)=O)c1N`, the TGI with KM12 colon, in the assay with 786-0 renal, in the assay on NCI-H522 lung, in the assay on SK-MEL-2 melanoma, in the assay on NCI-H460 lung and in the assay on M14 melanoma was greater than 100 µM throughout. Moreover, the TGI in the assay on HCT-116 colon was 74.1 µM; in the assay with SF-539 CNS it was greater than 100 µM; in the assay with NCI-H23 lung it was greater than 100 µM; with LOX IMVI melanoma, greater than 100 µM.
Take `CCc1ccc(Oc2c(-c3ccc(OCc4ccc(Cl)cc4)cc3O)nn(C)c2C(F)(F)F)cc1`: the GI50 is 0.389 µM in the assay on KM12 colon; 1.22 µM in the assay with 786-0 renal; 0.303 µM in the assay on NCI-H522 lung; 1.02 µM in the assay on SK-MEL-2 melanoma; 0.356 µM in the assay on NCI-H460 lung; 1.17 µM in the assay with M14 melanoma. The GI50 in the assay on HCT-116 colon is 0.259 µM; in the assay on SF-539 CNS, 1.77 µM; in the assay on NCI-H23 lung, 0.376 µM; in the assay with LOX IMVI melanoma it was 0.416 µM. Also, the TGI in the assay on KM12 colon is 1.61 µM; with 786-0 renal, 2.87 µM; in the assay with NCI-H522 lung, 1.94 µM; in the assay on SK-MEL-2 melanoma, 2.63 µM; in the assay on NCI-H460 lung, 1.31 µM; with M14 melanoma it was 2.68 µM. Further, the TGI in the assay on HCT-116 colon was determined as 1.1 µM; with SF-539 CNS, 3.75 µM; in the assay on NCI-H23 lung, 1.74 µM; in the assay with LOX IMVI melanoma, 1.51 µM.
Regarding `CCCCCCCCCC1CC(=O)OC23CCCC(=O)C12O3` (centres undefined), the TGI in the assay on KM12 colon, in the assay on 786-0 renal, with NCI-H522 lung, in the assay with SK-MEL-2 melanoma, in the assay on NCI-H460 lung and in the assay with M14 melanoma was greater than 100 µM each time. The TGI with HCT-116 colon, in the assay on SF-539 CNS, in the assay on NCI-H23 lung and with LOX IMVI melanoma was greater than 100 µM each time.
`CC(=O)Nc1cccc(C#Cc2cncnc2Nc2ccc(OCc3cccc(F)c3)c(Cl)c2)c1`: the GI50 in the assay with KM12 colon was 9.64 µM; in the assay with 786-0 renal, 7.66 µM; in the assay with NCI-H522 lung, 4.47 µM; in the assay on SK-MEL-2 melanoma it was 6.43 µM; in the assay with NCI-H460 lung, 8.94 µM; with M14 melanoma, 10.8 µM. Besides, the GI50 is 9.1 µM in the assay on HCT-116 colon, 14.9 µM with SF-539 CNS, 10.6 µM with NCI-H23 lung and 8.12 µM with LOX IMVI melanoma. The TGI was greater than 25 µM in the assay with KM12 colon; greater than 25 µM in the assay on 786-0 renal; 23.9 µM in the assay on NCI-H522 lung; greater than 22.8 µM in the assay on SK-MEL-2 melanoma; greater than 25 µM in the assay with NCI-H460 lung; greater than 25 µM in the assay with M14 melanoma. Moreover, the TGI with HCT-116 colon, with SF-539 CNS, in the assay on NCI-H23 lung and in the assay on LOX IMVI melanoma was greater than 25 µM throughout.
